Data taken from PMC7701285, “A Strain-Specific Inhibitor of Receptor-Bound HIV-1 Targets a Pocket near the Fusion Peptide” (Cell Reports, 2020).

Target: B41 SOSIP.664 pseudotype parent; B41 (9032_08_A1) HIV-1 Env on pseudotyped virus (Human immunodeficiency virus 1, UniProt B3UES2)
Test: TZM-bl pseudovirus neutralization, luciferase
Assay type: cell-based
Details: average, 1 h preincubation at 37°C, 1% DMSO, 48 h, entry read-out

Structure (SMILES): Cc1ccc(-c2ccc(NC(=O)N3CCC4(CCO4)CC3)cc2)cc1 [GO52]
- IC50: 1600 nM
